One assay deals with NCI-H1975. The experiment in a line: cells. To be noted: Homo sapiens, NCI-H1975, 72 h.
A further assay is described as follows: cells. To be noted: Homo sapiens, HCC827, 72 h.
Assay [1] concerns the target T1, Epidermal growth factor receptor (Homo sapiens, UniProt P00533, L858R). The experiment in a line: Inhibition of EGFR L858R mutant after 1.5 hr by FRET assay. The assay is classed as protein assay.
For assay [2], the target named is T2, Epidermal growth factor receptor (Homo sapiens, UniProt P00533, L858R/T790M). Put plainly: Inhibition of EGFR L858R/T790M mutant after 1.5 hr by FRET assay. The assay is classed as protein assay.
Another assay deals with A549. Put plainly: Antiproliferative activity against human A549 cells expressing wild type EGFR coexpressing k-Ras mutant after 72 hrs by MTS assay. The conditions noted are these: A549, 72 h.
The subject of another assay is A-431. The experiment in a line: Antiproliferative activity against human A431 cells overexpressing EGFR after 72 hrs by MTS assay. The conditions noted are these: A-431, 72 h. (Formazan colour is commonly taken as a measure of viable cells.)
Assay [3] in a line: Antiproliferative activity against human HL7702 cells expressing wilt type EGFR after 72 hrs by MTS assay. To be noted: L02, 72 h.
Assay [4] concerns the target T3, Epidermal growth factor receptor (Homo sapiens, UniProt P00533, L861Q). The experiment in a line: Inhibition of EGFR L861Q mutant after 1.5 hr by FRET assay. The format is protein assay.
Assay [5] has as its target T4, Epidermal growth factor receptor (Homo sapiens, UniProt P00533, T790M). Put plainly: Inhibition of EGFR T790M mutant after 1.5 hr by FRET assay. The format is protein assay.
The target of assay [6] is T5, Epidermal growth factor receptor (Homo sapiens, UniProt P00533). The experiment in a line: Inhibition of EGFR after 1.5 hr by FRET assay.
In assay [7] the target is T4, Epidermal growth factor receptor. Put plainly: Binding affinity to EGFR T790M mutant.
Assay [8] deals with T2, Epidermal growth factor receptor. The experiment in a line: Binding affinity to EGFR L858R/T790M mutant.
For assay [9], the target named is T5, Epidermal growth factor receptor. The experiment in a line: Binding affinity to EGFR.
Assay [10] concerns the target T3, Epidermal growth factor receptor. The experiment in a line: Binding affinity to EGFR L861Q mutant.
In assay [11] the target is T1, Epidermal growth factor receptor. Put plainly: Binding affinity to EGFR L858R mutant.

Some results are limits rather than exact numbers.

This is an account of results in ChEMBL document CHEMBL2029259, “Design, synthesis, and biological evaluation of novel conformationally constrained inhibitors targeting epidermal growth factor receptor threonine⁷⁹⁰ → methionine⁷⁹⁰ mutant” (J Med Chem, 2012).

T4 sequence (P00533 25-1210 T790M limits assumed): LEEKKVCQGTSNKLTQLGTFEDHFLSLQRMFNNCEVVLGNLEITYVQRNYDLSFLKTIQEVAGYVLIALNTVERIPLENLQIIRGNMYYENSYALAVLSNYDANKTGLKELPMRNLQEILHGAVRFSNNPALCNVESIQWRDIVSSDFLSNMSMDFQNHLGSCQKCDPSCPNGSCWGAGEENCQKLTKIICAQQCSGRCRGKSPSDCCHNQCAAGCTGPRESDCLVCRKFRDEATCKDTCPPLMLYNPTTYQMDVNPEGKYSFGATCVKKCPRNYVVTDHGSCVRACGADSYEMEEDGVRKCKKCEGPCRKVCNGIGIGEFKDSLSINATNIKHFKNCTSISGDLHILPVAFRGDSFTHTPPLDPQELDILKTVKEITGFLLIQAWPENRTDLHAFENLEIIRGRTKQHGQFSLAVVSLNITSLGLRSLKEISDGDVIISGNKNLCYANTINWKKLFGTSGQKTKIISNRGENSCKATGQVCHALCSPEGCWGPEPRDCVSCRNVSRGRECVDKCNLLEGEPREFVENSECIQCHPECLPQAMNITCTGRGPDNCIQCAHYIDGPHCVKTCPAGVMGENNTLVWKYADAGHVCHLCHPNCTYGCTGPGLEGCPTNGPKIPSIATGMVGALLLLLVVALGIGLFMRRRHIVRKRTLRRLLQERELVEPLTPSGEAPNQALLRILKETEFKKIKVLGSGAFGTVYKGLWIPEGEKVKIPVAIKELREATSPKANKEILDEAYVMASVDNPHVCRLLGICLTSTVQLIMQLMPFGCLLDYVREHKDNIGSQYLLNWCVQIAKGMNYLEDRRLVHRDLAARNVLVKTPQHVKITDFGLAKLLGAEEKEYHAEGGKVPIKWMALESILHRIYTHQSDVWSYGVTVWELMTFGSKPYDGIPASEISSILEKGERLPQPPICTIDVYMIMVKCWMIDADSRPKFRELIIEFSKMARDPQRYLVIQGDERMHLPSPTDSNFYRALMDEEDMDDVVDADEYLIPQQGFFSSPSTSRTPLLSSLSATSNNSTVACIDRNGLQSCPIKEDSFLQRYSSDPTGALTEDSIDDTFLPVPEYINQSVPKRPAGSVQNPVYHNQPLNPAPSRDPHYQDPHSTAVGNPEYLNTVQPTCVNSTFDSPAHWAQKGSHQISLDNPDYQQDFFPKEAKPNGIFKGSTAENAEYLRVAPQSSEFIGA
T5 sequence (P00533 whole entry): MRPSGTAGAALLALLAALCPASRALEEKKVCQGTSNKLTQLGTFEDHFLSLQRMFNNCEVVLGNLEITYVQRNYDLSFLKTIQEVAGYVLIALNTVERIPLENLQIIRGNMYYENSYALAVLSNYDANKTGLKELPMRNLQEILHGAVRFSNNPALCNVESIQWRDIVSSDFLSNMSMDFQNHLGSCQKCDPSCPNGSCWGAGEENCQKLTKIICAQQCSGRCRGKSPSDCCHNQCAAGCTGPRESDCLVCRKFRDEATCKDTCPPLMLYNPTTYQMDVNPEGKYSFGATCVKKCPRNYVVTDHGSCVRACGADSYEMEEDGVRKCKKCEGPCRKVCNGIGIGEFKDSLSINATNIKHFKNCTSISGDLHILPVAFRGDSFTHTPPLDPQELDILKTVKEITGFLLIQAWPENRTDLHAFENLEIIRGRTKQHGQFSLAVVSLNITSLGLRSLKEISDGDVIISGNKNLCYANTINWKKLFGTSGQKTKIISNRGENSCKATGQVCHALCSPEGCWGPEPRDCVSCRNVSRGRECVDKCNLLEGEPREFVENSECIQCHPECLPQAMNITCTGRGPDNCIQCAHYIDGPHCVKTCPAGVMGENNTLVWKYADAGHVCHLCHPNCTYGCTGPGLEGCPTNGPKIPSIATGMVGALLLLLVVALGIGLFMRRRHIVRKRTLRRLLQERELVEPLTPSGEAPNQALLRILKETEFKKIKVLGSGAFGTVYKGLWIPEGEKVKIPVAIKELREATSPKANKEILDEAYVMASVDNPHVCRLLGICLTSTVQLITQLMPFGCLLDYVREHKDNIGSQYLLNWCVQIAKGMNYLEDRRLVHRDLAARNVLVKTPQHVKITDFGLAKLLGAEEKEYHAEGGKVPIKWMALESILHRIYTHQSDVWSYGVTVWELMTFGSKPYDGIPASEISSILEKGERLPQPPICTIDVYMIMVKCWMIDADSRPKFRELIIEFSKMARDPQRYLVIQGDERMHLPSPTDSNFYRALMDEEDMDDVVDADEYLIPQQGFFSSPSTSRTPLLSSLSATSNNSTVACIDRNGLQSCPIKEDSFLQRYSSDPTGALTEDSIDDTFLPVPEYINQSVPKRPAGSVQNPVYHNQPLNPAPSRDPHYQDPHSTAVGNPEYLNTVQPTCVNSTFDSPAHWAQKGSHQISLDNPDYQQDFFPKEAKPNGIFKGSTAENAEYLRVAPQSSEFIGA
T2 sequence (P00533 25-1210 T790M/L858R limits assumed): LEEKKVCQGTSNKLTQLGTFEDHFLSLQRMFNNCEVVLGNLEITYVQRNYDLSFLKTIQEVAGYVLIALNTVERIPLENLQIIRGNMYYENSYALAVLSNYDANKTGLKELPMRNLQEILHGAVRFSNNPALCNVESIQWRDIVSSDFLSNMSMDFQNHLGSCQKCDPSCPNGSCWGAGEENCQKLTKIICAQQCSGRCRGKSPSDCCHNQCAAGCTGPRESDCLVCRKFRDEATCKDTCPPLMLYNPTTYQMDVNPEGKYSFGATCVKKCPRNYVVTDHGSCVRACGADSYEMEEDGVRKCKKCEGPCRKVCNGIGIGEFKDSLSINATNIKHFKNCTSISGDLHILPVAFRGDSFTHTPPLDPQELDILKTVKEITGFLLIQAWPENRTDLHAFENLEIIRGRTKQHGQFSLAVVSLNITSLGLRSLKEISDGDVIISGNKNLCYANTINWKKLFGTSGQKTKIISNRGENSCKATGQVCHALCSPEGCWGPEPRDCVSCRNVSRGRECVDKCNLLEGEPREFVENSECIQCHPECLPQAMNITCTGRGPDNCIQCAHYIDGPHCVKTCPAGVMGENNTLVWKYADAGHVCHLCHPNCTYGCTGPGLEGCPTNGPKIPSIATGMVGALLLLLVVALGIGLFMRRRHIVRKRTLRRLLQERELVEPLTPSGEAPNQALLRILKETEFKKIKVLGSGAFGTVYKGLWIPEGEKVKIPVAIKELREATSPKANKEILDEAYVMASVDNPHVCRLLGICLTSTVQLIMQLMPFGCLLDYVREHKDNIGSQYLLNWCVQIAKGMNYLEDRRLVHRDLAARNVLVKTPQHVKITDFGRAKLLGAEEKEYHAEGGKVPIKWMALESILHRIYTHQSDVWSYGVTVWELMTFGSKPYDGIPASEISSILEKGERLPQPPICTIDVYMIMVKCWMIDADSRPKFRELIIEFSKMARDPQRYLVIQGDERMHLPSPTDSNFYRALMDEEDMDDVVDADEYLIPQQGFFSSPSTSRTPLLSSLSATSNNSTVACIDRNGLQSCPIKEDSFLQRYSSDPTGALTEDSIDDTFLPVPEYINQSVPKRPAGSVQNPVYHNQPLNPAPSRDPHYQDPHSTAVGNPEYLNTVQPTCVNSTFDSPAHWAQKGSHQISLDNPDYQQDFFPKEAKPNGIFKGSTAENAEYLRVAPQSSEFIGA
T3 sequence (P00533 25-1210 L861Q limits assumed): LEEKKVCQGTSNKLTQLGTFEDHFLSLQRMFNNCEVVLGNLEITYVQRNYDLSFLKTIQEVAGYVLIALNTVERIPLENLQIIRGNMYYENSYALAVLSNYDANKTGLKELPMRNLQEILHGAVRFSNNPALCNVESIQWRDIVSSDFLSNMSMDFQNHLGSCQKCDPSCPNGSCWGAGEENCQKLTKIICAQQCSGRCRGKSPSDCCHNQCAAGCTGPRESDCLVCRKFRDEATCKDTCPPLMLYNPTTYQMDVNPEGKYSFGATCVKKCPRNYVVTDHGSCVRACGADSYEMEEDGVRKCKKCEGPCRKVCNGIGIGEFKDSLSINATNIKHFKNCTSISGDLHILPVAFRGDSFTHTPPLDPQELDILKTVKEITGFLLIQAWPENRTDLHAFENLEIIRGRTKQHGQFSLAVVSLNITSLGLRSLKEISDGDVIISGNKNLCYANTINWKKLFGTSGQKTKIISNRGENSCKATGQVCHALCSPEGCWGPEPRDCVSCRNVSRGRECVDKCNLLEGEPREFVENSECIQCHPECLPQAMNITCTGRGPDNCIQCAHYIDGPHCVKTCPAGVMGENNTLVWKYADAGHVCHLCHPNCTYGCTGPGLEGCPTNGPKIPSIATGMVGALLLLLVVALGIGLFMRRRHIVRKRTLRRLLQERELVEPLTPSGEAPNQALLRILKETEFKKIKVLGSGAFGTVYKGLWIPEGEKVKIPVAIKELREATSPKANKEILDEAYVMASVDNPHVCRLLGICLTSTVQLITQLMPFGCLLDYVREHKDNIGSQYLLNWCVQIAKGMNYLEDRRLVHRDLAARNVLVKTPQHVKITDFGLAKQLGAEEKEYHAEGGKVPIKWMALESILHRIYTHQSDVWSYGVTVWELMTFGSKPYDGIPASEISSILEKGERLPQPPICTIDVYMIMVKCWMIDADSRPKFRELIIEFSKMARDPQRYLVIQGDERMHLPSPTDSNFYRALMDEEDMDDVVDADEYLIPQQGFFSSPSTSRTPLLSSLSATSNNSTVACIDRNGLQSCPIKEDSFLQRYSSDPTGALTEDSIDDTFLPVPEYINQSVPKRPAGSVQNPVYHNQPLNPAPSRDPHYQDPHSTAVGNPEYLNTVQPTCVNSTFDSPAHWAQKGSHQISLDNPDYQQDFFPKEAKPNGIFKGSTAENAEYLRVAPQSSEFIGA

One may read the IC50 as the concentration at which inhibition is half-maximal. The low end stands for higher potency, the high end for lower potency. In the case of `C=CC(=O)Nc1cccc(N2C(=O)N(C)Cc3cnc(Nc4ccc(N5CCN(C)CC5)cc4OC(C)C)nc32)c1`, the IC50 with NCI-H1975 came to 230 nM; in the assay “cells” it was 27 nM; in assay [1], 13.7 nM; in assay [2], 36.3 nM; with A549, 11700 nM; in the assay with A-431, 2110 nM. The IC50 in assay [3] is above 10000 nM; in [4], 13.5 nM; in assay [5] it was 39.9 nM; in assay [6] it was 8.81 nM.
As for `C=CC(=O)Nc1cccc(N2C(=O)N(C(C)C)Cc3cnc(Nc4ccc(N5CCN(C)CC5)cc4OC)nc32)c1`, the IC50 came to 58 nM in the assay with NCI-H1975; 4 nM in the assay “cells”; 0.45 nM in [1]; 4.42 nM in assay [2]; 8420 nM in the assay with A549; 820 nM in the assay on A-431. For the same molecule, the IC50 in [3] was above 10000 nM; in assay [4] it was 0.46 nM; in assay [6], 0.38 nM.
In the case of `C=CC(=O)Nc1cccc(N2C(=O)N(C)Cc3cnc(Nc4ccccc4)nc32)c1`, the IC50 with NCI-H1975 came to 170 nM; in “cells” it was 44 nM; in assay [1], 10.9 nM; in assay [2], 28.3 nM; in the assay with A549, 18000 nM; in the assay on A-431, 6900 nM. Moreover, the IC50 in [3] was above 10000 nM; in assay [4], 12.1 nM; in assay [5] it was 45.7 nM; in assay [6], 6.95 nM.
Consider `C=CC(=O)Nc1cccc(N2C(=O)N(c3ccc(Oc4ccccc4)cc3)Cc3cnc(Nc4ccc(N5CCN(C)CC5)cc4OC)nc32)c1`, for which the IC50 was 1.66 nM in assay [1]; 3.57 nM in assay [2]; 1770 nM with A549; above 10000 nM in assay [3]; 2.31 nM in assay [4]; 2.03 nM in [5]. In assay [6], this molecule gave an IC50 of 1.52 nM.
Take `C=CC(=O)Nc1cccc(N2C(=O)N(C)Cc3cnc(Nc4ccc(N5CCN(C)CC5)cc4F)nc32)c1`: the IC50 in the assay on NCI-H1975 is 8460 nM; in the assay “cells”, 5010 nM; in assay [1], above 1000 nM; in assay [2], above 1000 nM; with A549 it was 11100 nM; in the assay with A-431 it was above 10000 nM. Also, the concentration for half-maximal inhibition (IC50) is 7180 nM in assay [3], above 1000 nM in assay [4], above 1000 nM in [5] and above 1000 nM in assay [6].
As to `C=CC(=O)Nc1cccc(Oc2nc(Nc3ccc(N4CCN(C)CC4)cc3OC)ncc2Cl)c1`, the IC50 was 48 nM in the assay with NCI-H1975; 7 nM in “cells”; 5310 nM in the assay with A549; 1390 nM in the assay with A-431; 2730 nM in [3].
Consider `C=CC(=O)Nc1cccc(N2C(=O)N(C)Cc3cnc(Nc4ccc(N5CCN(C)CC5)cc4)nc32)c1`, for which the IC50 in the assay with NCI-H1975 worked out at 45 nM; in the assay “cells”, 14 nM; in [1], 0.53 nM; in assay [2], 1.19 nM; with A549, 11400 nM; with A-431 it was 550 nM. Also, the IC50 came to 7560 nM in assay [3], 0.56 nM in assay [4], 1.66 nM in assay [5] and 0.43 nM in [6].
`C=CC(=O)Nc1cccc(N2C(=O)N(C)Cc3cnc(Nc4ccc(N5CCC(N(C)C)CC5)cc4OC)nc32)c1`: the IC50 amounted to 530 nM with NCI-H1975; 150 nM in the assay “cells”; 2.41 nM in assay [1]; 5.2 nM in assay [2]; 14500 nM in the assay on A549; 1390 nM in the assay on A-431. Besides, the half-maximal inhibitory concentration (IC50) is above 10000 nM in [3], 2.83 nM in assay [4], 9.52 nM in assay [5] and 3.52 nM in assay [6].
By Kd is commonly meant a measure of binding affinity in units of concentration. A high value points to weaker binding. As to `CCC(=O)Nc1cccc(N2C(=O)N(C)Cc3cnc(Nc4ccc(N5CCN(C)CC5)cc4OC)nc32)c1`, the 50% inhibitory concentration (IC50) in the assay with NCI-H1975 is above 20000 nM; in assay [1], above 1000 nM; in assay [2], above 1000 nM; in the assay on A549, above 30000 nM; in the assay with A-431, above 10000 nM; in assay [3], above 10000 nM. Moreover, the IC50 in assay [4], in [5] and in [6] was above 1000 nM each time. The equilibrium dissociation constant (Kd) in [7] stood at 560 nM; in [8] it was 850 nM; in assay [9] it was 1400 nM; in assay [10], 1100 nM; in assay [11], 1600 nM.
Consider `C=CC(=O)Nc1cccc(N2C(=O)N(C)Cc3cnc(Nc4ccc(N5CCCCC5)cc4OC)nc32)c1`, for which the IC50 in the assay on NCI-H1975 is 610 nM; in “cells”, 170 nM; in assay [1] it was 10.4 nM; in assay [2], 36.4 nM; in the assay with A549, 12000 nM; in the assay with A-431 it was 5060 nM. Besides, the concentration for half-maximal inhibition (IC50) in assay [3] was above 10000 nM; in assay [4] it was 15.4 nM; in assay [5], 95.7 nM; in assay [6], 29.5 nM.
Take `C=CC(=O)Nc1cc2c(Nc3ccc(F)c(Cl)c3)ncnc2cc1OCCCN1CCOCC1` [CANERTINIB]: in the assay “cells”, the IC50 worked out at 1 nM.
As for `C=CC(=O)Nc1cccc(N2C(=O)N(C)Cc3cnc(Nc4ccc(N5CCCN(C)CC5)cc4OC)nc32)c1`, the IC50 is 720 nM in the assay with NCI-H1975; 73 nM in the assay “cells”; 2.11 nM in assay [1]; 5.17 nM in assay [2]; above 20000 nM in the assay with A549; 2150 nM with A-431. In addition, the IC50 is above 10000 nM in assay [3], 2.75 nM in assay [4], 11 nM in assay [5] and 1.47 nM in assay [6].
Take `C=CC(=O)Nc1cccc(N2C(=O)N(c3ccc(-c4ccccc4)cc3)Cc3cnc(Nc4ccc(N5CCN(C)CC5)cc4OC)nc32)c1`: the IC50 is 1.67 nM in assay [1]; 4.64 nM in assay [2]; 2270 nM in the assay on A549; 3690 nM in assay [3]; 3.43 nM in assay [4]; 5.24 nM in assay [5]. The same molecule displayed an IC50 in assay [6] of 1.41 nM.
For the molecule `C=CC(=O)Nc1cccc(N2C(=O)N(C)Cc3cnc(Nc4ccc(N5CCOCC5)cc4OC)nc32)c1`, the IC50 in the assay with NCI-H1975 was 150 nM; in “cells”, 130 nM; in [1] it was 10.3 nM; in assay [2], 28.9 nM; with A549, 10500 nM; in the assay on A-431 it was above 10000 nM. Further, the IC50 in assay [3] is above 10000 nM; in assay [4], 12.7 nM; in assay [5] it was 60.3 nM; in assay [6] it was 16.4 nM.
Regarding `C=CC(=O)Nc1cccc(N2C(=O)N(c3ccc(OCc4ccccc4)cc3)Cc3cnc(Nc4ccc(N5CCN(C)CC5)cc4OC)nc32)c1`, the IC50 stood at 2.42 nM in assay [1]; 6.31 nM in assay [2]; 2470 nM in the assay on A549; 2790 nM in assay [3]; 2.56 nM in assay [4]; 2.43 nM in assay [5]. Further, the IC50 in assay [6] turned out to be 1.67 nM.
For `C=CC(=O)Nc1cccc(N2C(=O)N(C)Cc3cnc(Nc4ccc(N5CCN(C)CC5)cc4OC)nc32)c1`, the IC50 in the assay on NCI-H1975 is 47 nM; in the assay “cells”, 18 nM; in [1] it was 1.08 nM; in assay [2], 3.14 nM; in the assay with A549, 15900 nM; in the assay on A-431, 750 nM. The IC50 was above 10000 nM in [3], 1.21 nM in assay [4], 6.56 nM in [5] and 1.16 nM in assay [6].
As to `C=CC(=O)Nc1cccc(N2C(=O)N(C)Cc3cnc(Nc4ccc(N(C)C)cc4OC)nc32)c1`, the IC50 in the assay with NCI-H1975 was 540 nM; in the assay “cells”, 740 nM; in assay [1], 4.95 nM; in assay [2], 11.5 nM; in the assay with A549, above 20000 nM; with A-431 it was 5620 nM. Moreover, the IC50 in [3] is above 10000 nM; in assay [4] it was 6.22 nM; in assay [5], 24.9 nM; in assay [6], 4.99 nM.
Take `C=CC(=O)Nc1cccc(N2C(=O)N(C)Cc3cnc(NC)nc32)c1`: the IC50 in the assay on NCI-H1975 is 20100 nM; in “cells” it was 6920 nM; in assay [1], above 1000 nM; in assay [2], above 1000 nM; in the assay on A549, above 20000 nM; in the assay with A-431, above 10000 nM. For the same molecule, the half-maximal inhibitory concentration (IC50) in [3] is above 10000 nM; in assay [4], 837 nM; in [5], above 1000 nM; in assay [6], 929 nM.
As to `COc1cc(N2CCN(C)CC2)ccc1Nc1ncc2c(n1)N(c1cccc(N)c1)C(=O)N(C)C2`, the IC50 with NCI-H1975 was above 20000 nM; in “cells”, 4890 nM; in assay [1], above 1000 nM; in [2], above 1000 nM; with A549 it was 11200 nM; in the assay with A-431 it was above 10000 nM. Moreover, the IC50 in [3] is above 10000 nM; in assay [4], above 1000 nM; in assay [5] it was above 1000 nM; in assay [6], above 1000 nM.
Regarding `C=CC(=O)Nc1cccc(N2C(=O)N(C)Cc3cnc(Nc4ccc(N5CCN(C)CC5)cc4C)nc32)c1`, the IC50 in the assay with NCI-H1975 came to 200 nM; in “cells”, 31 nM; in assay [1] it was 1.21 nM; in [2], 4.18 nM; in the assay on A549, 11900 nM; with A-431 it was 990 nM. For the same molecule, the IC50 in assay [3] was above 10000 nM; in assay [4], 1.31 nM; in [5], 9.37 nM; in assay [6], 1.95 nM.
Turning to `C=CC(=O)Nc1cccc(N2C(=O)N(C)Cc3cnc(Nc4ccc(N5CCN(C)CC5)cc4OCC)nc32)c1`, the concentration for half-maximal inhibition (IC50) in the assay on NCI-H1975 is 103 nM; in “cells” it was 14 nM; in assay [1], 2.68 nM; in assay [2], 7.1 nM; in the assay with A549 it was 10400 nM; in the assay on A-431, 1080 nM. In addition, the IC50 in assay [3] was above 10000 nM; in [4] it was 3.02 nM; in assay [5] it was 12.7 nM; in assay [6] it was 4.41 nM.
